# Ends that are not written are not given here.
# What was measured:
# Format in all cases: biochemical
# PAI-1 [1] = biological target: T1, PAI-1 (Homo sapiens, UniProt P05121); experiment: Kinetics of peptide annealing: residual PAI inhibitory activity assayed with β-trypsin and S-2222; settings: peptide 5.5 mM; 25° C.
# T1 construct: made in house; host or cells: E. coli (vector pET3a)
# Description: PAI-1 (6.4 μM) was incubated with increasing concentrations of each peptide at 23° C. and the (T1/2) of PAI-1 inactivation was determined by measuring the PAI-1 activity remaining over time.
# Peptides were dissolved in 1 mM HCl+1% TWEEN-80 (the three PAI peptides) (SEQ ID NOS: 1-3), or in 0.1M HEPES (SEQ ID NOS: 4-5), 0.1M NaCl, 0.1% PEG-8000, pH […] (the two consensus peptides). Peptides were annealed to active PAI by incubation of active PAI in 0.1M HEPES, 0.1M NaCl, 0.1% PEG-8000, pH 7.4 with a peptide in its solvent. Ten percent of the final incubation mixture consisted of the peptide solvent. Incubation was carried out at 25° C. until no PAI inhibitory activity remained as determined by kinetics rate assays with trypsin, described below. The final concentration of PAI in the incubation mixture was either 0.9 μM (for kinetics assays) or 6.3 μM (for gels and purification). The peptide concentrations varied greatly due to the individual solubilities and rates of insertion of each peptide. These concentrations are given in the legends of the appropriate figures.
# During annealing of 0.9 μM PAI with a peptide, the residual inhibitory activity of PAI was measured after varying incubation times by assaying an aliquot of the sample with β-trypsin. Trypsin (1 nM final concentration) was added to the chromogenic substrate S-2222 (950 μM) with 27 nM PAI sample. The absorbance at 405 nm was measured continuously for at least 12.5 min in a Shimadzu UV-265 UV-visible spectrophotometer. The pseudo-first order rate constant of trypsin is an indirect measure of the amount of PAI that has lost inhibitory activity due either to annealing or to becoming latent. The rate constant of controls containing the peptide solvent but no peptide was subtracted from that of the experimental assays in order to correct for the effect of the simultaneous change of PAI from the active to the latent state.
# PAI-1 [2] = biological target: T1, PAI-1; experiment: Plasminogen activator inhibitor 1 activity assay (t-PA, Spectrozyme t-PA); settings: for PAI-1 T1/2: PAI-1 0.7 μM, peptide 55 μM, 98±18 min without peptide
# Description: (§1) PAI-1 (0.7 μM) was incubated at 37° C. with either P1-P14 peptide or control peptide (55 μM) in 0.1M HEPES, 0.1M NACl, 0.1% PEG (MW 8000), pH 7.4 (assay buffer). At timed intervals 0-110 minutes), 5 μL of the PAI-1:peptide mixture was added to 96 well microtiter plates containing 45 μL of t-PA (0.03 μM in assay buffer), then incubated for 30 minutes at 37° C. Spectrozyme t-PA (final concentration of 150 μM) was added to yield a final reaction volume of 70 μL, and 30 minutes later the absorbance at 405 nm was determined in a THERMO-max (Molecular Devices, Palo Alto, Calif.) microplate reader. 100% PAI-1 activity was defined as activity observed at time zero, while 0% PAI-1 activity was defined as that observed in the absence of PAI-1. A standard t-PA activity curve, derived from absorbance values of varying concentrations of t-PA incubated in the absence of PAI-1, was used to determine PAI-1 activity.
# PAI-1 [3] = biological target: T1, PAI-1; experiment: Kinetics of peptide annealing: residual PAI inhibitory activity assayed with β-trypsin and S-2222; settings: for k / kobs / t1/2 of PAI-1 inactivation: 25° C.
# vitronectin-bound PAI-1 = biological target: T2, vitronectin-bound PAI-1 (Homo sapiens, UniProt P05121); experiment: PAI-1 activity assay in the presence of vitronectin; settings: for T1/2 of vitronectin-bound PAI-1: PAI-1 0.7 μM with vitronectin 1.7 μM, 37° C., 190±12 minutes without peptide
# T2 construct: made in house; host or cells: E. coli (PAI-1); vitronectin a gift
# T2 sequence (P05121 24-402): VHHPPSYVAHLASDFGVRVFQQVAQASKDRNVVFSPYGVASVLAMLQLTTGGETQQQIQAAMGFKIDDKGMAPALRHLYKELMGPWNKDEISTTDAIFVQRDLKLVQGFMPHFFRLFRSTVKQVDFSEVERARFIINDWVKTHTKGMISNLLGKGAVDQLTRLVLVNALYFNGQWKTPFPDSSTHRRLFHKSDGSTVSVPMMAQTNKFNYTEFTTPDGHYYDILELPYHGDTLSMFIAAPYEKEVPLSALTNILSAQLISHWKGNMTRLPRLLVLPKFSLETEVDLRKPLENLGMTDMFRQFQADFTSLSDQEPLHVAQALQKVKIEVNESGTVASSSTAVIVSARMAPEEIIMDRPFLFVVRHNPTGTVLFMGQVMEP
# Description: as §1
# Since vitronectin binds and stabilizes the active conformation of PAI-1, the capacity of the Thr-Val-Ala-Ser-Ser-Ser-Thr-Ala-Val-Ile-Val-Ser-Ala-Arg (SEQ ID NO: 1) to inactivate vitronectin-bound PAI-1 was examined. PAI-1 (0.7 μM) was incubated with vitronectin (1.7 μM) for 30 minutes at 37° C., then Thr-Val-Ala-Ser -Ser-Ser-Thr-Ala-Val-Ile-Val-Ser-Ala-Arg (SEQ ID NO: 1) or control peptide (55 μM) was added, and the PAI-1 T1/2 was determined. In the presence of vitronectin, the T1/2 of PAI-1 was prolonged approximately 2-fold (98±18 to 190±12 minutes), similar to previous reports (Declerck et al. 1988).
# T1 sequence (P05121 24-402): as above
substance,measurement,setting,value
"Ac-TVASSSTAVIVSAR [SEQ ID NO: 1, Thr-Val-Ala-Ser-Ser-Ser-Thr-Ala-Val-Ile-Val-Ser-Ala-Arg]",k,PAI-1 [1],.014 M⁻¹ s⁻¹
same,PAI-1 T1/2,PAI-1 [2]; 37° C.,approximately four
same,PAI-1 T1/2,"PAI-1 [2]; 37° C., listed as P1-P14 peptide",4 ± 3 min
same,fold shortening of the PAI-1 T1/2,"PAI-1 [2]; 37° C., peptide 55 μM vs no peptide, listed as P1-P14 peptide",24 fold
same,"drop in t1/2, wt14-mer (37° C.) compared to wt8-mer (25° C.)",PAI-1 [2]; similar peptide concentrations (55 μM),100 fold
same,half-life of PAI inactivation,"PAI-1 [3]; 0.9 μM PAI, 64 μM peptide",4.3 min
same,k,PAI-1 [3]; peptide 1.5 mM,.022 M⁻¹ s⁻¹
same,kobs,PAI-1 [3]; peptide 1.5 mM,.12 h⁻¹
same,t1/2 of PAI-1 inactivation,PAI-1 [3]; peptide 1.5 mM,5.8 h
same,k,PAI-1 [3]; peptide 3.5 mM,.020 M⁻¹ s⁻¹
same,kobs,PAI-1 [3]; peptide 3.5 mM,.25 h⁻¹
same,t1/2 of PAI-1 inactivation,PAI-1 [3]; peptide 3.5 mM,2.7 h
same,kobs,PAI-1 [3]; peptide 5.5 mM,.28 h⁻¹
same,t1/2 of PAI-1 inactivation,PAI-1 [3]; peptide 5.5 mM,2.5 h
same,k,PAI-1 [3]; peptide 7 mM,.012 M⁻¹ s⁻¹
same,kobs,PAI-1 [3]; peptide 7 mM,.31 h⁻¹
same,t1/2 of PAI-1 inactivation,PAI-1 [3]; peptide 7 mM,2.2 h
same,k,PAI-1 [3]; peptide 9 mM,.017 M⁻¹ s⁻¹
same,kobs,PAI-1 [3]; peptide 9 mM,.54 h⁻¹
same,t1/2 of PAI-1 inactivation,PAI-1 [3]; peptide 9 mM,1.3 h
same,T1/2 of vitronectin-bound PAI-1,vitronectin-bound PAI-1; peptide 55 μM,about 120 minutes
same,T1/2 of vitronectin-bound PAI-1,"vitronectin-bound PAI-1; peptide 55 μM, listed as P1-P14 peptide",only slowly inactivated
same,decrease of the half-life of PAI-1 in the presence of vitronectin,vitronectin-bound PAI-1; from approximately 190 to about 120 minutes,~40%
same,fold decrease of the half-life of vitronectin-bound PAI-1,vitronectin-bound PAI-1; peptide 55 μM,1.6 fold
